Measured values from PMC9374667 (Communications Biology, 2022).
Several values for one entry are separate records, joined by “and”; a condition that tells them apart may be missing. Equal values may be shown once.

Legend:
IKKε [1] = biological target: T1, IKKε (Mus musculus, UniProt Q9R0T8); test: IKKε-knockdown 3T3-L1 adipocytes (siRNA; western blotting, cAMP, glycerol, ISO); format: cell-based, Murine; parameters: endogenous in cells; host or cells: differentiated 3T3-L1 adipocytes; conditions: for Glycerol (Figure 9l) / UCP1 (western blotting, Figure 9J) / cAMP (Figure 9k): 10μM BJ +
T1 sequence (Q9R0T8 1-717): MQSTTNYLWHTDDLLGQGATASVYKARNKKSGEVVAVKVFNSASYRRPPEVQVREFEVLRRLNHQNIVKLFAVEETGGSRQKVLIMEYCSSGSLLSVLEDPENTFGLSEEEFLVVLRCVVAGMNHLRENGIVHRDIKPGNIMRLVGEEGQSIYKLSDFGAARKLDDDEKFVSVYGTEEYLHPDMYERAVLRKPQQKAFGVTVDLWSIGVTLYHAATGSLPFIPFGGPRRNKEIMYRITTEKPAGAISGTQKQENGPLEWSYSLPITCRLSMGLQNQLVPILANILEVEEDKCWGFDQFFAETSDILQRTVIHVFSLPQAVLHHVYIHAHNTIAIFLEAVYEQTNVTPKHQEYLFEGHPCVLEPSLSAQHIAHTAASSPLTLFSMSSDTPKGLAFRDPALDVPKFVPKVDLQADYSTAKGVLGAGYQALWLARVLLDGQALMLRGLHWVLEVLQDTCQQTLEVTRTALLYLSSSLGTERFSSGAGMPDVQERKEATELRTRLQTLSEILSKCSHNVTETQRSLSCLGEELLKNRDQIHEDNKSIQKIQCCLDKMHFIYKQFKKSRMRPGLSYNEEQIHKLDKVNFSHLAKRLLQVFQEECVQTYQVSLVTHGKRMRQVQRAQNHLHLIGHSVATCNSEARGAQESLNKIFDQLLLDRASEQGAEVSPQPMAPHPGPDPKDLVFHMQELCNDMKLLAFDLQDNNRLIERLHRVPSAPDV
Protocol: Small interference RNA transfection (siRNA) was performed using 4 μM TBK1 siRNA (siTBK1) or 4 μM […]ε) or corresponding NC siRNA (siNC). The epididymal adipose tissue was dissected, the fresh adipose tissue was weighed and rapidly rinsed with PBS. The adipose tissue was cut and incubated with isoproterenol (10 μM) for 2 h, and homogenized in a cold cleavage buffer to prepare the adipose tissue homogenate. Then the homogenate was centrifuged at 12,000 × g at 4 °C for 15 min, and the supernatant was collected. […] Then the cells were lysed in a petri dish, scraped off, and centrifuged at 12,000 × g at 4 °C for 15 min before the supernatant was collected. […] And concentrations were further standardized according to protein concentration. The adipose tissue or 3T3-L1 adipocytes were homogenized by ultrasound in an ice-cold RIPA lysis buffer containing 1% PMSF and centrifuged at 12,000 × g at 4°C for 15 min to collect the supernatant. The BCA protein assay kit (Beyotime, Shanghai, China) was used to detect the total protein concentration. Proteins (20-30 μg) of the sample were separated by 10% SDS-PAGE gel and transferred onto polyvinylidene difluoride (PVDF) membranes. Then the PVDF membranes were blocked in 5% skim milk powder in TBS containing 1% Tween-20 (TBST) for 2 h at room temperature and washed with TBST for 3 times. […] After washing, the membranes were incubated with horseradish peroxidase-conjugated secondary antibodies (in 5% skim milk powder) for 1 h at room temperature. Finally, the membranes were treated with enhanced chemiluminescence agents (Tanon, Shanghai, China) and the signals were monitored using the Tanon 5200 multi chemiluminescent imaging system (Tanon, Shanghai, China).

IKKε [2] = biological target: T1, IKKε; test: IKKε kinase activity in TNF-α induced 3T3-L1 adipocytes; format: cell-based, Murine; parameters: endogenous in cells; host or cells: differentiated 3T3-L1 adipocytes; IKKε kinase activity: unit not given here; conditions: for IKKε kinase activity: Figure 7h, replicates
IKKε [3] = biological target: T1, IKKε; test: IKKε activity assay in BAT; format: in vivo, mice; parameters: The adipose tissue was ultrasound-crushed in PBS buffer solution (1:9 w/v) to prepare the tissue homogenate; from tissue; host or cells: epididymal white adipose tissue (eWAT) and brown adipose tissue (BAT) of C57BLKS WT and db/db mice; conditions: for the expression of IKKε in BAT of db/db mice: Figure 6l, individual values
Protocol: The adipose tissue was ultrasound-crushed in PBS buffer solution (1:9 w/v) to prepare the tissue homogenate. The tissue homogenate was centrifuged at 5000 × g for 10 min, and the supernatant was taken for detection. Briefly, samples or standards were added to the microplates pre-coated with IKKε antibody or TBK1 antibody. Then horseradish peroxidase (HRP) labeled antibody was added and incubated at 37 °C for 60 min. After thorough washing, the 3,3′,5,5′-tetramethylbenzidine (TMB) substrate was used for color development, and the absorbance (OD value) was determined at 450 nm.

[4] = cited from earlier work
[5] = Berberine content in adipose tissue of db/db mice (HPLC); conditions: BJ 75 and 150 mg/kg, BBR 150 mg/kg, crushing, extracting
Text: Response: We thank the Reviewer for this comment. In line with the Reviewer ’s
each group by crushing, extracting, and HPLC analysis.
based on the improved bioavailability.
Figure 1. (a) The positions of the peaks of berberine standards in the HPLC assay.

## CC(C)Cc1ccc(C(C)C(=O)[O-])cc1.COc1ccc2cc3[n+](cc2c1OC)CCc1cc2c(cc1-3)OCO2.O.O.O.O [BJ, berberine-ibuprofen]
IKKε [1]; 10μM BJ
  IKKϵ (western blotting, Figure 9h): 0.1875 and 0.2278 and 0.214
  UCP1 (western blotting, Figure 9i): 0.3644 and 0.4778 and 0.4436
IKKε [1]; 3T3-L1 adipocytes treated with BJ alone
  Expression of UCP1: significantly increased
IKKε [1]; IKKε-knockdown 3T3-L1 adipocytes treated with BJ, vs IKKε-knockdown
  UCP1 expression: not significantly altered
IKKε [1]; IKKε-knockdown 3T3-L1 adipocytes, ISO stimulation, BJ vs IKKε-knockdown
  cAMP accumulation, glycerol release, and UCP1 expression: did not significantly increase the above changes
IKKε [1]; ISO-stimulated 3T3-L1 adipocytes, BJ treatment alone
  cAMP accumulation, glycerol release, and UCP1 expression: significantly increased cAMP accumulation, glycerol release, and UCP1 expression
IKKε [1]; siIKKϵ +, ISO +
  Glycerol (Figure 9l): 176.805 µmol/L and 182.076 µmol/L and 176.254 µmol/L
  UCP1 (western blotting, Figure 9J): 0.785 and 0.7814 and 0.8472
  cAMP (Figure 9k): 0.4194 pmol/mg protein and 0.4185 pmol/mg protein and 0.3432 pmol/mg protein and 0.371 pmol/mg protein and 0.3866 pmol/mg protein and 0.405 pmol/mg protein
IKKε [1]; siIKKϵ +, ISO -
  Glycerol (Figure 9l): 89.0822 µmol/L and 96.3611 µmol/L and 91.9299 µmol/L
  UCP1 (western blotting, Figure 9J): 0.6376 and 0.6905 and 0.6507
  cAMP (Figure 9k): 0.2155 pmol/mg protein and 0.2223 pmol/mg protein and 0.1908 pmol/mg protein and 0.2097 pmol/mg protein and 0.2158 pmol/mg protein and 0.2252 pmol/mg protein
IKKε [1]; siIKKϵ -, ISO +
  Glycerol (Figure 9l): 156.977 µmol/L and 167.166 µmol/L and 170.891 µmol/L
  UCP1 (western blotting, Figure 9J): 0.6574 and 0.7704 and 0.6754
  cAMP (Figure 9k): 0.362 pmol/mg protein and 0.3606 pmol/mg protein and 0.3205 pmol/mg protein and 0.3322 pmol/mg protein and 0.3416 pmol/mg protein and 0.3545 pmol/mg protein
IKKε [1]; siIKKϵ -, ISO -
  Glycerol (Figure 9l): 81.5401 µmol/L and 78.1125 µmol/L and 83.122 µmol/L
  UCP1 (western blotting, Figure 9J): 0.5736 and 0.639 and 0.5661
  cAMP (Figure 9k): 0.1756 pmol/mg protein and 0.1959 pmol/mg protein and 0.2053 pmol/mg protein and 0.1755 pmol/mg protein and 0.1805 pmol/mg protein and 0.1893 pmol/mg protein
IKKε [1]; siIKKϵ+10μM BJ
  IKKϵ (western blotting, Figure 9h): 0.09311 and 0.1256 and 0.1406
  UCP1 (western blotting, Figure 9i): 0.4915 and 0.4988 and 0.5593
IKKε [2]; TNF-α(50ng/ml)+3μM BJ
  IKKε kinase activity: 47.3662 and 40.5834 and 38.8273 and 37.402 and 43.0522 and 46.31
IKKε [2]; TNF-α(50ng/ml)+10μM BJ
  IKKε kinase activity: 22.5765 and 26.127 and 25.2998 and 23.4546 and 23.7218 and 26.8142
IKKε [2]; TNF-α induced 3T3-L1 adipocytes, BJ treatment for 24 h
  IKKε expression level / kinase activity: markedly decreased
IKKε [3]; db/db+BJ 75mg/kg
  the expression of IKKε in BAT of db/db mice: 0.441 U/g and 0.458 U/g and 0.427 U/g and 0.409 U/g and 0.371 U/g and 0.436 U/g
IKKε [3]; db/db+BJ 150mg/kg
  the expression of IKKε in BAT of db/db mice: 0.429 U/g and 0.4 U/g and 0.314 U/g and 0.335 U/g and 0.348 U/g and 0.398 U/g
IKKε [3]; db/db mice, both doses of BJ
  IKKε activity and expression levels in BAT: had no effect

## COc1ccc2cc3[n+](cc2c1OC)CCc1cc2c(cc1-3)OCO2 [BBR, Berberine chloride dihydrate]
[4]; acute oral BBR (400 mg) provocation tests
  Maximum plasma concentration (Cmax): approximately 0.4 ng/ml
[4]; human subjects
  Share of the oral dose that enters the systemic circulation: less than 5%
[4]; oral BBR 300 mg/d for seven days
  Steady-state concentration in human plasma: approximately 0.3 ng/ml
[5]
  BBR in adipose tissue (accumulation): not detected
